Measured values from patent publication US20080146555A1, “Uses of Kinase Inhibitors and Compositions Thereof” (GPC Biotech, Inc, priority 2004, published 2008).
Values after ≈ are worked out from the molar mass of the structure shown. Where a name gives a salt, the structure may show the parent alone.

Columns and labels:
[1] = tested on: NCI panel of 60 cell lines; assay: cells
Description: The evaluation of compounds at the National Cancer Institute in their panel of 60 cell lines provides a wealth of information regarding efficacy in a wide range of tumor types and genetic backgrounds. Included within this panel are cell lines derived from leukemia, melanoma and cancers of the lung, colon, brain, ovary, breast, prostate and kidney. Use of this panel provides a measure of the efficacy of compounds in cells with alterations in many genes that are associated with neoplastic transformation including p53 and Her2/Neu as well as those involved in metabolism and those which confer multi-drug resistance. The data generated in these cell lines with the protocol described below can be used to evaluate the activity of compounds.
Cells were grown in RPMI-1640 10% FCS and plated in 96 well micro-titer plates at densities ranging from 5,000 to 40,000 cells/well. The plates were incubated for 24 hours at 37° C., 5% CO2 for 24 hours. Media containing twice the desired final concentration of the compound (5 doses spanning 4 logs) was prepared and 100 μl was added to each well containing 100 μl media plus cells to yield the desired final concentration. The plates were then incubated for an additional 48 hours.
The effect of the compound on cellular viability was determined with the Sulforhodamine B (SRB) assay, which measures total protein. Cells were fixed with cold TCA to a final concentration of 10% and incubated at 4° C. for 60 minutes. The supernatant was discarded and the plates were washed five times with water and air-dried. SRB solution at […] in 1% acetic acid was added to each well and the plates were incubated for 10 minutes at room temperature. The plates were washed five times with 1% acetic acid and air-dried. The bound stain was solubilized with 10 mM trizma base and the absorbance was read on a plate reader at […].

Casein Kinase 1 (yeast) = biological target: T1, Casein Kinase 1 (yeast) (Schizosaccharomyces pombe, UniProt P40233); assay: CK1-Yeast kinase assay (A37 assay); assay type: biochemical, S. pombe
T1 construct: purchased Upstate 14-112
Description: • 1. Assay Dilution Buffer I (ADBI, Catalog #20-108): 20 mM MOPS, pH 7.2, 25 mM β-glycerol • phosphate, 5 mM EGTA, 1 mM sodium orthovanadate, 1 mM dithiothreitol. • 2. Casein Kinase 1, active: Dilute to 10-50 ng/μl. Use 10 μl (100-500 ng) per assay point. • 3. Casein Kinase 1 Substrate Peptide (Catalog #12-423): Prepare a 1 mM sock in ADBI. Use 10 μl per assay for a final concentration of 250 μM per assay point. • 4. [γ-^32P]ATP: Stock 1 mCi/100 μl (3000 Ci/mmol, obtained from Perkin Elmer, Cat. # BLU002A). Make 10 μl aliquots (100 μCi/vial). Before starting the assay, dilute an aliquot with 90 μl of 500 μM cold ATP and 75 mM magnesium chloride in ADBI.
• 1. Add 10 μl of ADBI to a microcentrifuge tube. • 2. Add 10 μl of Casein Kinase 1, active (100-500 ng). • 3. Add 10 μl (250 μM) Casein Kinase 1 Substrate Peptide. • 4. Add 10 μl of diluted [γ-^32P]ATP mixture. • 5. Incubate for 10 minutes at in a shaking incubator at 30° C. • 6. Transfer 25 μl onto the center of a 2 cm×2 cm P81 paper. • 7. Wash the assay squares three times with 0.75% phosphoric acid. • 8. Wash the assay squares once with acetone. • 9. Transfer the assay squares to a scintillation vial and add 5 ml scintillation cocktail. • 10. Read in scintillation counter. Compare cpm of enzyme samples to cpm of control samples that contain no enzyme (background control).

Aqueous solubility = assay type: physicochemical; details: water (aqueous solution)
Solution stability = assay type: physicochemical; details: pH6, room temperature, kept in dark
[2] = MTD/toxicity study in rats; assay type: in vivo; details: 50-80 mg/kg i/v, QDx5/2/5 schedule
Description: A similar scheme can also be employed in experimental rats and other animals. For example, to determine MTD in rats, 50-80 mg/kg of A37 was dosed i/v in a QDx5/2/5 schedule.

HT29 = assay: SRB cytotoxicity, HT29 parental cells; assay type: cell-based; details: Homo sapiens, HT-29, 72 h
Description: (§1) In these experiments, the P-glycoprotein expressing NCI-Adr resistant subline (Vickers et al., 1989. Mol Endocrinology 3 (1):157-164) was used. […] Briefly, cells were plated in 96 well dishes 24 hours prior to compound addition. Where noted, they were exposed to verapamil for 4 hours prior to compound addition and then throughout the treatment period (72 hours). The assay was terminated with the addition of cold TCA to a final concentration of 10% and the plates were incubated for one hour at 4° C. The plates were then washed 5 times with water and 100 μl of a Sulforhodamine B solution (4%) was added to each well. The plate was then incubated for 10 minutes at room temperature before removal of unbound dye by washing with 1% acetic acid.
(§2) The parental non-mutated cell line HT29 was used as a control.
(§3) Z. Cytotoxicity was measured using the SRB assay according to Shekan et al. as described above in Example 1A.

HT29/mit = assay: SRB cytotoxicity, mitoxanthrone resistant cells; assay type: cell-based, human
Description: as §1, with “acid. The bound dye was solubilized with 10 mM Trizma base and the absorbance read at OD570.” for “acid.”
as §2, §3

quiescent tumor cells = assay: Activity on quiescent tumor cells; assay type: cell-based
normal cells = assay: Activity on normal cells; assay type: cell-based

T1 sequence (P40233 1-298 limits assumed): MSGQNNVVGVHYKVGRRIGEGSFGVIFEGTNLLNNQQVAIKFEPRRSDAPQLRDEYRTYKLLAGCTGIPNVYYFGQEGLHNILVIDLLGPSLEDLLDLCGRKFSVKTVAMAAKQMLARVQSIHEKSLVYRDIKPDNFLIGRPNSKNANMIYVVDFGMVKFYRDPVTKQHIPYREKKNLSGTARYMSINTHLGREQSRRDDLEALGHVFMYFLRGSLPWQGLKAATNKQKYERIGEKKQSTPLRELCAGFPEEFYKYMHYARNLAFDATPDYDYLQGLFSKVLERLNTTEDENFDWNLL

| Structure (SMILES) | NCI assay Ave TGI [1] | IC50 (Casein Kinase 1 (yeast); CK1 IC50 (A37), kinase panel, 10 μM ATP) | IC50 (Casein Kinase 1 (yeast); CSNK1A1 (CK1) Inhibition (IC50), A37, S. pombe CK1 (*)) | solubility (Aqueous solubility) | Solution stability (Solution stability) | cardiotoxicity [2] | IC50 (HT29) | RR (relative resistance) HT29/mit vs HT29 (HT29/mit) | IC50 (HT29/mit; Homo sapiens, HT-29, 72 h, SRB) | IC50 (quiescent tumor cells) | IC50 (normal cells) |
| --- | --- | --- | --- | --- | --- | --- | --- | --- | --- | --- | --- |
| CC(C)N1CCN(C(=O)COc2ccc(-c3n[nH]c4c3C(=O)c3c(NC(=O)NN5CCOCC5)cccc3-4)cc2)CC1 [Compound A37] | 2.06 µM | < 3 nM | < 5 nM | 15 to 20 mg/mL (≈ 26.1 to 34.9 mM) | > 1 mo. | did not induce cardiotoxicity |  |  |  |  |  |
| COCCN1CCN(Cc2ccc(-c3n[nH]c4c3C(=O)c3c(NC(=O)NN5CCOCC5)cccc3-4)cc2)CC1 [Compound B16, N-[3-(4-{[4-(2-methoxyethyl)piperazinyl]methyl}phenyl)-4-oxoindeno[2,3-d]pyrazol-5-yl](morpholin-4-ylamino)carboxamide dihydrochloride] |  |  |  |  |  |  | 77 nM | 22.1 | 1700 nM | 11 nM | 10.9 µM |
